From ChEMBL document CHEMBL1201862, “PubChem BioAssay data set” (2004)
Where “and” joins values, the source holds several entries; their conditions need not be identical. Equal entries are not always repeated. Calls of active or inactive are those of the source.

Legend:
Assay type in all cases: functional
[1] = biological target: Potassium voltage-gated channel subfamily KQT member 2 (Rattus norvegicus, UniProt O88943); assay: Mode of action assay-Dose response assay for compounds that activate KCNQ2 potassium channels on automated patch clamp. [Related pubchem assays (depositor defined):AID2239, AID2258, AID2287, AID493113]
Potassium voltage-gated channel subfamily KQT member 2, sequence (O88943 whole entry): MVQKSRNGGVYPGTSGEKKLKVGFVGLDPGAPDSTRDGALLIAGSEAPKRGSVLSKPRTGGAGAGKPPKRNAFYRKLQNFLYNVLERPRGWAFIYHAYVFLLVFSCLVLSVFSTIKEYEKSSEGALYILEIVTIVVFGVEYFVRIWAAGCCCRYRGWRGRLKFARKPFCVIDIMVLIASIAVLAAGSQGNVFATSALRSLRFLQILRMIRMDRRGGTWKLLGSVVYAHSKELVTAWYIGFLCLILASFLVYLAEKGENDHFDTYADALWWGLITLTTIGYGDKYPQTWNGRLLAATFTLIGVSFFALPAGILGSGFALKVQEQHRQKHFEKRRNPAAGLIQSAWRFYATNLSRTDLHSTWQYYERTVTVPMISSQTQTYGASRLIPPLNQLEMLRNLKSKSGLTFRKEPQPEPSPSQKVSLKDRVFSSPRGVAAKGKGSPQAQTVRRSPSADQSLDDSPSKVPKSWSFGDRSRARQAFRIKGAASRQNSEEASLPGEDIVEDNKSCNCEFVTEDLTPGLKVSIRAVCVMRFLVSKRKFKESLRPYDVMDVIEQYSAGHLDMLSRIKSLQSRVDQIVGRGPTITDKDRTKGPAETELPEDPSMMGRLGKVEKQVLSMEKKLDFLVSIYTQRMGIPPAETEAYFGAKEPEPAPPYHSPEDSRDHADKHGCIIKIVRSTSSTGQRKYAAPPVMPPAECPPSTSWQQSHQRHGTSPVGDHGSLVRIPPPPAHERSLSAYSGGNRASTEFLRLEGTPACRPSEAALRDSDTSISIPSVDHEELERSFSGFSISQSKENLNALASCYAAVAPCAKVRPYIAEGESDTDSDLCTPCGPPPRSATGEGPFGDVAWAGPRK

[2] = activation of human KCNQ1/KCNE1 current – automated patch clamp, CHO cells, selectivity assay for KCNQ2 activator project, dose response (AID 493042)
[3] = biological target: Potassium voltage-gated channel subfamily KQT member 2/member 3 (Rattus norvegicus, UniProt O88943+O88944); assay: Mode of action assay-Dose response assay for KCNQ2 activators in the KCNQ2/KCNQ3 co-expressing cells on automated patch clamp. [Related pubchem assays (depositor defined):AID2239, AID2258, AID2287]
Potassium voltage-gated channel subfamily KQT member 2/member 3, sequence (O88943 whole entry): as above
Potassium voltage-gated channel subfamily KQT member 2/member 3, sequence (O88944 whole entry): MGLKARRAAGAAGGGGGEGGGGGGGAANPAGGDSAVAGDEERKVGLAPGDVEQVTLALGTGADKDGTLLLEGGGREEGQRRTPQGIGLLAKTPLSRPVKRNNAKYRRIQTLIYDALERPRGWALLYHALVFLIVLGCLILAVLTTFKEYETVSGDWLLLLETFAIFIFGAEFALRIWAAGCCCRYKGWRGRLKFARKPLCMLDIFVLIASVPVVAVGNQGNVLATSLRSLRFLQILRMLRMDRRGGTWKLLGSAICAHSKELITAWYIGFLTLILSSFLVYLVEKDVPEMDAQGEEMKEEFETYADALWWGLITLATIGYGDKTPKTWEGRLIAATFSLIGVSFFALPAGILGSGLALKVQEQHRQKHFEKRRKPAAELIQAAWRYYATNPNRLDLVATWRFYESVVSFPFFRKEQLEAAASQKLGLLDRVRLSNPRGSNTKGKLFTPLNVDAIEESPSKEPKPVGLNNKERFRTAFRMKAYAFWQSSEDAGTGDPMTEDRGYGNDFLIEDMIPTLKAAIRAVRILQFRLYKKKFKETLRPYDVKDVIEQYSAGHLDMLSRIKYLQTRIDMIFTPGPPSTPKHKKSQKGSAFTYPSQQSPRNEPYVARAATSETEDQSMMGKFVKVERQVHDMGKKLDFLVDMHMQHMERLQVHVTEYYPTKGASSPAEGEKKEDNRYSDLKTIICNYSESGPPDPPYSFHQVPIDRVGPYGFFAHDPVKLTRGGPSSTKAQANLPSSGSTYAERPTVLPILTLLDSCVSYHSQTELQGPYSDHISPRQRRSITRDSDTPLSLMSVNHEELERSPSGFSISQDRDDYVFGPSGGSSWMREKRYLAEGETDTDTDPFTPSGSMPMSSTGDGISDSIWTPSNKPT

Measured: EC50

Cc1cc(C)c(NC(=O)C2CC3CCC2C3)c(C)c1 (stereo not drawn)
active: [1] 410 nM and 369 nM and 230 nM | [2] 31.9 µM | [3] 0.366 µM
